Experimental data published in the METLIN SMRT retention time set (Domingo-Almenara et al. 2019).

Experiment: gradient 5% acetonitrile 3 min, to 50% in 2 min, to 85% in 15 min, held 3 min, 100 µL/min
Details: column: Zorbax Extend-C18 2.1 x 50 mm; eluents: water / acetonitrile, 0.1% formic acid
How it was run: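 Over 3 months, pure standards in mixtures of ~100 molecules were run by HPLC coupled to a quadrupole time-of-flight mass spectrometer in positive and negative ionization mode. The column was a Zorbax Extend-C18 (2.1 × 50 mm, 1.8 μm) at 100 μL/min, eluted with water and acetonitrile each holding 0.1% formic acid, with 40 μL dead and 900 μL dwell volumes. Retention time was determined from adduct peaks chosen by software and checked manually.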

SMILES | RP-LC retention time [s]
COc1ccc(Nc2ccc3c(=O)c(-c4ccccc4OC)coc3c2)c(OC)c1 | 940
COc1ccc(Nc2nc(N3CCN(CCO)CC3)nc3c2C(=O)CCC3)cc1 | 637
CCn1cnc(S(=O)(=O)N2CCC(C(=O)N3CCC(C)CC3)CC2)c1 | 678
CCNC(=O)C1CCCN(C(=O)Nc2ccc(NC(=O)Nc3ccc(F)cc3)cc2)C1 (stereo not given) | 691
Cn1nc(C(=O)N2CCOCC2)c2c1CCN(C(=O)Nc1ccccc1Cl)C2 | 674
CN(C)CCn1nnc2cc(-c3noc(-c4cccc(Cl)c4)n3)ccc21 | 708
O=C(Nc1ccc2c(c1)OCCO2)N1CCN(c2cc(-c3ccccc3)ncn2)CC1 | 645
COc1ccc(-c2cc(N3CCN(C(=O)COc4ccc(C)cc4OC)CC3)ncn2)cc1 | 608
Cc1ccc2c(c1)OCC(=O)N2Cc1nc(-c2ccccc2C)no1 | 1120
O=C(NCCc1ccccc1)N1C[C@@H]2C[C@H]1C[C@@H]2NS(=O)(=O)c1ccccc1 | 820
O=C(NC1CCCCCC1)C1CCN(c2nc3ccccc3nc2C(F)(F)F)CC1 | 1200
O=C(Cc1csc(NC(=O)c2ccsc2)n1)Nc1nc2c(s1)CCCC2 | 874
Cc1c(C)n(-c2ccc(Cl)cc2)c2ncn(CC(=O)NCc3ccco3)c(=O)c12 | 868
Cc1ccc(NC(=O)CSc2nc(N3CCCCC3)nc3ccccc23)cc1C | 795
C=CCNC(=O)C1CCN(C(=O)Nc2ccc(NC(=O)Nc3cccc(F)c3)cc2)CC1 | 706
COc1ccc(-c2cn3c(CC(=O)N4CCN(c5ccccn5)CC4)csc3n2)cc1OC | 1030
COc1cc(C(=O)N2CCC3(CC2)Nc2cc(F)ccc2-n2cccc23)cc(OC)c1OC | 868
O=C(Nc1ccc2c(c1)CN(C(=O)Cn1c(=O)oc3ccccc31)CCO2)C1CC1 | 767
O=C1CCC2(C(=O)NCCc3ccccc3)CCCC=C2N1c1ccccc1 (stereo not given) | 808
N#Cc1ccc(S(=O)(=O)N2CCOCCNC(=O)[C@H]3CCCC[C@H]32)cc1 | 747
COc1c(NC=O)c2c(c([N+](=O)[O-])c1OC)C(=O)OC2 | 760
CC(C)c1ccc(-c2nc3ccccc3s2)cc1 | 958

SMILES | RP-LC retention time [s]
COc1ccc(Br)cc1CNC(=O)CN1C(=O)CCCc2ccccc21 | 892
COc1ccc(-c2ncc3c(=O)n(Cc4ccccc4C)c(=O)n(C)c3n2)cc1 | 679
Cc1nc(N2CCOCC2)cc(N2CCN(C(=O)c3cnn(-c4ccccc4)n3)CC2)n1 | 587
CCC(C)NC(=O)c1ccc2c(c1)N(C(=O)NC)CC2 (stereo not given) | 652
COc1ccc(CNC(=O)C2(c3ccc(NS(C)(=O)=O)cc3)CCCCC2)cc1 | 859
COc1ccccc1N1CCN(CCCNc2cc(C(=O)O)c3ccccc3n2)CC1 | 575
CCCOC(=O)c1ccc(Nc2nc(C(=O)OCC)nc3ccccc23)cc1 | 1020
COC1CCC12CCN(C(=O)c1ccc(C)s1)CC2 (stereo not given) | 895
Cc1ccc(NC(=O)CN2CCC(c3nc(-c4cccs4)no3)CC2)c(C)c1 | 718
COc1cccc(NC(=O)C2CCN(c3cc(N4CCCC4)ncn3)CC2)c1 | 652
CCc1nccn1Cc1noc(-c2ccccc2)n1 | 634
CCC(=O)NCc1nc2c(n1CC)CN(C(=O)c1ccc(C(F)(F)F)s1)CC2 | 579
COCc1nc2cccnc2n1C1CCN(C(=O)NCCc2ccccc2)CC1 | 692
C=CCc1ccc(OCC(O)CN2C(C)CCCC2C)c(OC)c1 (stereo not given) | 603
COc1ccc(NC(=O)N(Cc2nnc3n2CCCCC3)c2ccc(OC)cc2)cc1 | 631
COc1ccc2c(=O)oc3c(OC)cc(CCN(C)C)c4c(=O)oc1c2c34 | 689
CC(C)N(C(=O)Cn1c(CN2CCCCC2)nc2ccccc21)c1ccccc1 | 738
O=C(NC1(c2nc(-c3ccccc3)no2)CCCCC1)c1ccccc1F | 1100
CCCn1cc(C(=O)NCc2ccc3c(c2)OCO3)c2cccnc21 | 758
Cn1c(=O)c2c(nc([N+](=O)[O-])n2Cc2ccc(F)cc2)n(C)c1=O | 795
COc1ccc(-c2c(C)noc2NC(C)=O)cc1S(=O)(=O)N(C)c1ccc(C)cc1 | 830
COc1ccc(-c2nnc(-c3cccnc3N3CCN(C(=O)c4ccc(C#N)cc4)CC3)o2)cc1 | 874

SMILES | RP-LC retention time [s]
O=C(NC1CCCC1)C1CCN(C(=O)C2Sc3ccccc3NC2=O)CC1 (stereo not given) | 697
CCCS(=O)(=O)NCc1ccc2c(c1)CCN2C(=O)c1ccc(Cl)cc1 | 918
Cc1ccc(C)c(N2CCN(C(=O)C3CCCN(C(=O)c4[nH]c(C)cc4C)C3)CC2)c1 (stereo not given) | 1010
COc1ccccc1-c1noc(-c2cn(C)c3ccc(F)cc3c2=O)n1 | 744
COC(=O)c1cccc(NC(=O)Cn2nc3c(N4CCC(C)CC4)nccn3c2=O)c1 | 786
CC(=O)N1CCC(n2c(C)nc(C(=O)N3CCCCC3)c2C)CC1 | 559
CSc1ccc(CNC(=O)c2cn3c(n2)COCC3)cc1 | 663
CCCc1c(C(=O)O)nnn1-c1ccc(OC)c(Cl)c1 | 773
CSc1ccc(CNC(=O)CCCn2nc(-n3cccc3)c3c(C)cc(C)nc32)cc1 | 1030
Cc1ncsc1C1N(C2CCN(C(=O)c3cnccn3)CC2)C(=O)C12CCCC2 (stereo not given) | 654
CN(C)C(CNS(=O)(=O)c1ccc(Br)s1)c1cn(C)c2ccccc12 (stereo not given) | 595
CCN1CCC(N(Cc2cccs2)C(=O)Nc2cc(OC)c(OC)c(OC)c2)CC1 | 628
CCC(=O)Nc1nc2cc(NC(=O)C3CCN(S(=O)(=O)N4CCOCC4)CC3)ccc2s1 | 719
O=C(C1CCCN(c2ncnc3c2nc2n3CCCCC2)C1)N1CCN(c2ccccc2)CC1 (stereo not given) | 803
CC(=O)Nc1ccc(N(Cc2nnc3n2CCCCC3)C(=O)Nc2ccc(Cl)cc2)cc1 | 690
C=CCN(CC=C)C(=O)Cn1c(C2CC(=O)N(c3ccc(OC)cc3)C2)nc2ccccc21 (stereo not given) | 682
COc1cccc(Nc2c(C(N)=O)cnc3c(C)cc(S(=O)(=O)c4cccc(C(=O)N(C)C)c4)cc23)c1 | 683
CCOc1ccc(NC(=O)N2CCCN(c3ncccc3-c3nc(C4CC4)no3)CC2)cc1 | 944
CC(O)(CNS(=O)(=O)c1cccnc1)c1ccco1 (stereo not given) | 604
CCn1nc(-c2ccc(C)c(S(=O)(=O)N3CCC(C(N)=O)CC3)c2)c2c(c1=O)CCCC2 | 718
CC1=C(c2ccc(C)c(C)c2)S(=O)(=O)N=C1N1CCCN(C(=O)c2ccoc2)CC1 | 764
